Measured values as given in patent publication US6569888B1, “Anti-inflammatory indole derivatives” (AstraZeneca AB, priority 1999, dated 2003).
Like-named read-outs stand apart in the source and are kept apart here. Each block holds one compound with its values, some of them ahead of it.

Tests used:
THP-1 cells [1] = experiment: RANTES mediated chemotaxis; type: cell-based; settings: Homo sapiens, RANTES 2 nM, Calcein AM tagged cells
Method: (§1) In vitro chemotaxis assays were performed using the human monocytic cell line THP-1. Cell migration through polycarbonate membranes was measured by enumerating those passing through either directly by Coulter counting or indirectly by use of a colourimetric viability assay measuring the cleavage of a tetrazolium salt by the mitochondrial respiratory chain (Scudiero D. A. et al. 1988, Cancer Res., 48, 4827-4833).
(§2) Chemoattractants were introduced into a 96-well microtitre plate which forms the lower well of a chemotaxis chamber fitted with a PVP-free 5 μm poresize polycarbonate adhesive framed filter membrane (NeuroProbe MB series, Cabin John, Md. 20818, USA) according to the manufacturer's instructions. […] The plate was incubated at 37° C. for 3 h and the absorbance of the soluble formazan product was read on a microtitre plate reader at 450 nm. The data was input into a spreadsheet, corrected for any random migration in the absence of chemoattractant and the average absorbance values, standard error of the mean, and significance tests were calculated. hMCP-1 induced concentration dependent cell migration with a characteristic biphasic response, maximal […]. […]

THP-1 cells [2] = experiment: hMCP-1 mediated chemotaxis; type: cell-based, human
Method: as §1, §2

THP-1 cells [3] = experiment: MCP-1 mediated calcium flux in THP-1 cells; type: cell-based, human; settings: stimulation of THP-1 cells with hMCP-1, FURA-2; read-out: EC50 of rise in [Ca2+]i
Method: The human monocytic cell line THP-1 was grown in a synthetic cell culture medium RPMI 1640 supplemented with 10% foetal calf serum, 6 mM glutamine and Penicillin-Streptomycin (at 50 μg streptomycin/ml, Gibco BRL). THP-1 cells were washed in HBSS (lacking Ca^2+ and Mg^2+)+1 mg/ml BSA and resuspended in the same buffer at a density of 3×10^6 cells/ml. The cells were then loaded with […] FURA-2/AM for 30 min at 37° C., washed twice in HBSS, and resuspended at 1×10^6 cells/ml. THP-1 cell suspension (0.9 ml) was added to a 5 ml disposable cuvette containing a magnetic stirrer bar and 2.1 ml of prewarmed (37° C.) HBSS containing 1 mg/ml BSA. 1 mM MgCl2 and 2 mM CaCl2. The cuvette was placed in a fluorescence spectrophotometer (Perkin Elmer, Norwalk, Conn.) and preincubated for 4 min at 37° C. with stirring. Fluorescence was recorded over 70 sec and cells were stimulated by addition of hMCP-1 to the cuvette after 10 sec. [Ca^2+]i was measured by excitation at 340 nm and 380 nm alternately and subsequent measurement of the intensity of the fluorescence emission at 510 nm.
where the Kd for FURA-2 Ca^2+ complex at 37° C. was taken to be 224 nm. […]

MCP-1 receptor B (CCR2B) = biological target: T1, MCP-1 receptor B (CCR2B) (Homo sapiens, UniProt P41597); experiment: hMCP-1 receptor binding assay (125I-MCP-1, CHO-CCR2B cell membranes)
T1 construct: expressed in transfected cells; host or cells: CHO-K1 (clone 7, CHO-CCR2B), membrane fragments
T1 sequence (P41597 1-360 isoform P41597-2): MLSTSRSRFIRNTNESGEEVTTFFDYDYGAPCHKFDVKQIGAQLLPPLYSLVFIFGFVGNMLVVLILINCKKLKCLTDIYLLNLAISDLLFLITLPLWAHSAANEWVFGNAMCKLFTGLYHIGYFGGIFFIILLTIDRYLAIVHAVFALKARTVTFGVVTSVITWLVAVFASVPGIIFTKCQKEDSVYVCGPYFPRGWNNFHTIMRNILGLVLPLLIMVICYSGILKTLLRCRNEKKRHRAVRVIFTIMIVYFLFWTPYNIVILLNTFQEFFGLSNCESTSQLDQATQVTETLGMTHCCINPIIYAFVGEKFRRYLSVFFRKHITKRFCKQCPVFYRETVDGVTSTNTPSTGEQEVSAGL
Text: The MCP-1 receptor B (CCR2B) cDNA was cloned by PCR from THP-1 cell RNA using suitable oligonucleotide primers based on the published MCP-1 receptor sequences (Charo et al., 1994, Proc. Natl. Acad. Sci. USA, 91, 2752). The resulting PCR products were cloned into vector PCR-II™ (In Vitrogen, San Diego, Calif.). Error free CCR2B cDNA was subcloned as a Hind III-Not I fragment into the eukaryotic expression vector pCDNA3 (In Vitrogen) to generate pCDNA3/CC-CKR2A and pCDNA3/CCR2B respectively.
Linearised pCDNA3/CCR2B DNA was transfected into CHO-K1 cells by calcium phosphate precipitation (Wigler el al., 1979, Cell, 16, 777). Transfected cells were selected by the addition of Geneticin Sulphate (G418, Gibco BRL) at 1 mg/ml, 24 hours after the cells had been transfected. Preparation of RNA and Northern blotting were carried out as described previously (Needham et al., 1995, Prot. Express. Purific., 6, 134). CHO-K1 clone 7 (CHO-CCR2B) was identified as the highest MCP-1 receptor B expresser. […]
^125I MCP-1 was prepared using Bolton and Hunter conjugation (Bolton et al. 1973, Biochem. J., 133, 529; Amersham International plc]. Equilibrium binding assays were carried out using, the method of Ernst et al., 1994, J. Immunol., 152, 3541. Briefly, varying amounts of ^125I-labeled MCP-1 were added to 7 μg of purified CHO-CCR2B cell membranes in 100 μl of Binding Buffer. After 1 hour incubation at room temperature the binding reaction mixtures were filtered and washed 5 times through a plate washer (Brandel MLR-96T Cell Harvester) using ice cold Binding Buffer. Filter mats (Brandel GF/B) were pre-soaked for 60 minutes in 0.3% polyethylenimine prior to use. Following filtration individual filters were separated into 3.5 ml tubes (Sarstedt No. 55.484) and bound ^125I-labeled MCP-1 was determined (LKB 1277 Gammamaster). […] Non-specific binding was determined by the inclusion of a 200-fold molar excess of unlabelled MCP-1 in the reaction. […]

- IC50 (THP-1 cells [1]): 3.64 µM
Compound: O=C(O)c1cc2c(OCCCO)cccc2n1Cc1ccc(Cl)c(Cl)c1 [Compound 15, N-(3,4-Dichlorobenzyl)-4-(3-hydroxypropoxy)indole-2-carboxylic Acid]

- EC50 (THP-1 cells [3]): ~0.002 µM
- IC50 (MCP-1 receptor B (CCR2B); cold competition, 100 pM 125I-labeled MCP-1, CHO-CCR2B membrane fragments, read-out: IC50 of MCP-1 binding to CCR2B receptor): 0.00011 µM
- Kd (MCP-1 receptor B (CCR2B); equilibrium binding, CHO-CCR2B membrane fragments): 0.00012 µM
Compound: MCP-1: Human Monocyte Chemoattractant Protein-1, chemokine ligand of the CCR2 receptor
- concentration of maximal cell migration (biphasic response) (THP-1 cells [2]; hMCP-1 as chemoattractant): 0.5-1.0 nm

- IC50 (THP-1 cells [2]; Homo sapiens, 1 nM MCP-1): 12.8 µM
Compound: COc1ccc2c(cc(C(=O)O)n2Cc2ccc(Cl)c(Cl)c2)c1OCC(=O)O [Compound 9, N-(3,4-Dichlorobenzyl)-5-methoxy-4-(carboxymethoxy)indole-2-carboxylic Acid]

- IC50 (MCP-1 receptor B (CCR2B); competition with 100 pM labelled MCP-1, CHO-CCR2B membranes, 0.01-50 μM, duplicate eight point curves, read-out: IC50 in the hMCP-1 receptor binding assay): 2.3 µM
Compound: O=C(O)COc1cccc2c1cc(C(=O)O)n2Cc1ccc(F)c(F)c1 [Compound 5, N-(3,4-Difluorobenzyl)-4-(carboxymethoxy)indole-2-carboxylic Acid]
